Data: patent publication US20110112104A1, “TRICYCLIC COMPOUNDS, A PROCESS FOR THEIR PREPARATION AND PHARMACEUTICAL COMPOSITIONS CONTAINING THEM” (LES LABORATOIRES SERVIER, priority 2008, published 2011)

Each compound was assayed on caspase 3 (assay: Induction of caspase activity in vitro). Conditions: H146 small-cell lung carcinoma cells, compound at 10 μM, 6 hours exposure.
Format: cell-based, human
Method: This study was carried out on the following human tumour cell line: • 1 small-cell lung carcinoma, H146. This cell line is cultured in an incubator at 37° C. in the presence of 5% CO2. More specifically, the H146 cells are cultured in complete RPMI 1640 medium containing 10% foetal calf serum, 2 mM glutamine, 50 units/ml of penicillin, 50 μg/ml of streptomycin and 10 mM Hepes buffer, pH=7.4. The cells are distributed onto 6-well plates and exposed to the test compounds for 6 hours. They are then collected and lysed and the caspase activity is measured in the cell lysates. This enzymatic measurement is carried out by measuring the appearance of a fluorigenic cleavage product (Pharmacia).

| Compound | caspase 3 activity in cell lysates |
| --- | --- |
| CN(C)CC[C@H](CSc1ccccc1)Nc1ccc(S(=O)(=O)NC(=O)c2cc3c(cn2)N2CCN(Cc4ccccc4-c4ccc(Cl)cc4)CC2C3)cc1[N+](=O)[O-].Cl.Cl.Cl (stereo partly drawn) [Example 1, N-({2-[(4′-Chloro[1,1′-biphenyl]-2-yl)methyl]-1,2,3,4,10,10a-hexahydropyrido[4′,3′:4,5]pyrrolo[1,2-a]pyrazin-8-yl}carbonyl)-4-({(1R)-3-(dimethylamino)-1-[(phenylsulphanyl)methyl]propyl}amino)-3-nitro-benzenesulphonamide trihydrochloride] | 15395 RFU (Relative Fluorescence Units) |
| CN(C)CC[C@H](CSc1ccccc1)Nc1ccc(S(=O)(=O)NC(=O)c2ccc3c(n2)CC2CN(Cc4ccccc4-c4ccc(Cl)cc4)CCN32)cc1[N+](=O)[O-].Cl.Cl (stereo partly drawn) [Example 2, N-({8-[(4′-Chloro[1,1′-biphenyl]-2-yl)methyl]-6,7,8,9,9a,10-hexahydropyrido[2′,3′:4,5]pyrrolo[1,2-a]pyrazin-2-yl}carbonyl)-4-({(1R)-3-(dimethylamino)-1-[(phenylsulphanyl)methyl]propyl}amino)-3-nitro-benzenesulphonamide dihydrochloride] | 9948 RFU (Relative Fluorescence Units) |
| CN(C)CC[C@H](CSc1ccccc1)Nc1ccc(S(=O)(=O)NC(=O)c2cnc3c(c2)CC2CN(Cc4ccccc4-c4ccc(Cl)cc4)CCN32)cc1[N+](=O)[O-].Cl.Cl.Cl (stereo partly drawn) [Example 3, N-({7-[(4′-Chloro[1,1′-biphenyl]-2-yl)methyl]-5,5a,6,7,8,9-hexahydropyrido[3′,2′:4,5]pyrrolo[1,2-a]pyrazin-3-yl}carbonyl)-4-({(1R)-3-(dimethylamino)-1-[(phenylsulphanyl)methyl]propyl}amino)-3-nitro-benzenesulphonamide trihydrochloride] | 17776 RFU (Relative Fluorescence Units) |
